Here are results for one compound from patent US6391918B1, “N-sulphonyl and N-sulphinyl phenylglycinamide” (priority 1998, dated 2002).

By melting point is commonly meant the temperature, or range, at which the solid turns liquid. In turn, `CCS(=O)(=O)NC(C(=O)NCCc1ccc(OC)c(OC)c1)c1ccc(Cl)cc1` (stereo not shown) displayed a melting point of 136 to 138 °C.
